Assay results reported in patent US8679478B2, “Methods of lysosomal storage disease therapy” (Duke University, priority 2010, dated 2014).

How the values were obtained:
Type in all cases: in vivo, mouse
[1] = system: immune tolerant GAA-KO mice; experiment: Rotarod testing, ERT plus β2 agonist (Example 6); conditions: one week later (than 4 weeks); albuterol 30 mg/l drinking water plus ERT v. ERT alone
Procedure: GAA-KO mice were administered four weekly doses of rhGAA (20 mg/kg), and treated with medium dose clenbuterol (n=7), albuterol (n=4) or untreated (n=6 or 3). […] Mean+/−standard deviation are shown. P values indicate statistically significant differences (lines).
Two β2 agonists were evaluated in combination with ERT, clenbuterol and albuterol. The dose of clenbuterol was reduced 5-fold from the concentration used in Example 4, to 6 mg/l in drinking water, while albuterol was evaluated at the higher dose (30 mg/l in drinking water). Groups of 3 month-old immune tolerant GAA-KO mice (Raben et al., Human Mol. Genet., 2001, 10:2039-2047) were treated with four weekly doses of rhGAA (20 mg/kg body weight), with or without concurrent β2 agonist treatment.
Mice were sacrificed 7 days after the last injection. Selected tissues were collected for GAA enzyme activity and glycogen content analyses. […] GAA activity and glycogen content analyses, Rotarod testing, and Western blot detection of CI-MPR was performed essentially as described (Koeberl et al., Mol. Genet. Metab., 2011, 103:107-112. Wire hang testing was performed with a 0.5 cm mesh hardware cloth fixed to an 8 by 10 inch frame. Mice were placed on the wire mesh, which was slowly inverted 6 inches over a cage containing paper bedding. The latency, or time until the mouse fell into the cage, was recorded.

[2] = system: immune tolerant GAA-KO mice; experiment: Glycogen content in tissues, ERT plus β2 agonist (Example 6)
Procedure: (§1) Male GAA-KO mice were administered four weekly doses of 20 mg/kg body weight of rhGAA and sacrificed one week following the last injection. Groups of mice were treated with clenbuterol (n=6), albuterol (n=4) or untreated (n=6). Mice were euthanized for tissue analysis 5 weeks after initiation of ERT.
(§2) Cerebral and cerebellar hemispheres were analyzed 5 weeks following the initiation of ERT. Groups of mice were treated with clenbuterol (n=6), albuterol (n=4) or untreated (n=6).
(§3) Two β2 agonists were evaluated in combination with ERT, clenbuterol and albuterol. […] Groups of 3 month-old immune tolerant GAA-KO mice (Raben et al., Human Mol. Genet., 2001, 10:2039-2047) were treated with four weekly doses of rhGAA (20 mg/kg body weight), with or without concurrent β2 agonist treatment.
(§4) Mice were sacrificed 7 days after the last injection. Selected tissues were collected for GAA enzyme activity and glycogen content analyses. All animal procedures were done in accordance with Duke University Institutional Animal Care and Use Committee-approved guidelines. GAA activity and glycogen content analyses, Rotarod testing, and Western blot detection of CI-MPR was performed essentially as described (Koeberl et al., Mol. Genet. Metab., 2011, 103:107-112. Wire hang testing was performed with a 0.5 cm mesh hardware cloth fixed to an 8 by 10 inch frame. Mice were placed on the wire mesh, which was slowly inverted 6 inches over a cage containing paper bedding. The latency, or time until the mouse fell into the cage, was recorded.

[3] = system: immune tolerant GAA-KO mice; experiment: Histopathology of brain, glycogen staining; conditions: cerebellum; in comparison with ERT alone
Procedure: Histopathology was performed to examine brain involvement, and glycogen accumulations were detected in the cerebellum with ERT alone. Albuterol and clenbuterol each reduced the glycogen staining in the cerebellum, in comparison with ERT alone.

[4] = system: immune tolerant GAA-KO mice; experiment: GAA activity in tissues, ERT plus β2 agonist (Example 6)
Procedure: as §1, §2, §3, §4

GAA-KO mice [5] = experiment: Glycogen content in muscles, ERT plus clenbuterol or albuterol; conditions: ERT plus albuterol 30 μg/ml drinking water
Procedure: FIG. 8A-8C depicts increased GAA uptake and increased glycogen clearance in GAA-KO mice following clenbuterol treatment and ERT. […] GAA-KO mice were administered four weekly doses of rhGAA (20 mg/kg), and treated with clenbuterol (n=6) or untreated (n=5). […] Mean+/−standard deviation are shown. Statistically significant differences indicated (*=p<0.05; **=p<0.01).
GAA-KO mice were treated with weekly rhGAA (20 mg/kg): with medium clenbuterol, […] (n=6), with low clenbuterol, 1.3 mg/ml (n=6), with albuterol 30 mg/ml (n=4), or without drug treatment (n=3). Drugs were administered in the drinking water. Mean+/−s.d. shown. Statistically significant differences indicated (*=p<0.05; **=p<0.01).
(§5) For in vivo analysis of AAV vectors, stocks were administered intravenously (via the retroorbital sinus) in 3 month-old and 15 month-old GAA-KO mice, and to 3 month-old tolerant GAA-KO and DKO mice. Clenbuterol (30 μg/ml) was administered to groups of 3 month-old vector-injected and mock-injected male GAA-KO mice in drinking water for 28 days. At the indicated time points post-injection, tissue samples were obtained and processed as described below. All animal procedures were done in accordance with Duke University Institutional Animal Care and Use Committee-approved guidelines. GAA activity and glycogen content were analyzed essentially as described (Sun et al., Mol. Ther., 2005, 11:889-898; Sun et al., Mol. Ther., 2005, 11: 57-65). Rotarod testing was performed essentially as described (Sun, B. D. et al. 2005). Western blotting of hGAA was performed essentially as described (Amalfitano et al., Proc. Natl. Acad. Sci. USA, 1999, 96: 8861-8866) using the hGAA monoclonal antibody (courtesy of Genzyme Corp., Framingham, Mass.) and the CI-MPR antibody (catalog number GTX28093; Gene Tex, Irvine, Calif.).
The efficacy from gene therapy was increased by β2 agonist stimulation from clenbuterol treatment, and this benefit might be expected to affect ERT in Pompe disease, as well. Therefore, groups of 3 month-old GAA-KO mice were treated with four weekly doses of rhGAA (20 mg/kg), with or without concurrent clenbuterol treatment.

GAA-KO mice [6] = experiment: Glycogen clearance after rhGAA in GAA-KO (Pompe) mice
Procedure: (§6) CI-MPR-KO mice were generated using a muscle-specific promoter (muscle creatine kinase; CK) and the cre/loxP conditional knock out system essentially as described previously (Wylie et al., Am. J. Pathol., 2003, 162: 321-328). The muscle-specific CI-MPR-KO mice were crossed with GAA-KO mice to generate muscle specific DKO mice). This mouse colony was subsequently screened to be GAA−/−, M6PR flox/flox and MCK-Cre positive. These DKO mice and age matched Pompe mice were administered four weekly doses of 20 or 100 mg/kg rhGAA and sacrificed 3 days after the last injection. Selected tissues were collected for GAA enzyme activity levels, glycogen content depletion and Western blot analysis. Pompe and DKO mice injected with vehicle were used as controls.
as §5
(§7) To further understand the role of CI-MPR in recombinant human GAA (rhGAA) uptake and glycogen clearance specifically in Pompe disease, muscle-specific CI-MPR-KO mice were crossed with GAA-KO (Pompe disease) mice. […]

[7] = system: CI-MPR-KO/GAA-KO (DKO) mice v. GAA-KO (Pompe disease) mice; experiment: Glycogen content in tissues after rhGAA administration, DKO v. GAA-KO mice; conditions: rhGAA four weekly doses, dose not given
Procedure: as §6, §5
(§8) To further understand the role of CI-MPR in recombinant human GAA (rhGAA) uptake and glycogen clearance specifically in Pompe disease, muscle-specific CI-MPR-KO mice were crossed with GAA-KO (Pompe disease) mice. The DKO mice were administered four weekly doses of 20 mg/kg and 100 mg/kg body weight of recombinant human rhGAA and sacrificed three days after the last injection to evaluate GAA enzyme levels and glycogen depletion in the target tissues. […]

[8] = system: CI-MPR-KO/GAA-KO (DKO) mice v. GAA-KO (Pompe disease) mice; experiment: GAA enzyme activity in tissues after rhGAA administration, DKO v. GAA-KO mice; conditions: for GAA decrease in DKO v. GAA-KO (%): rhGAA four weekly doses, dose not given
Procedure: as §6, §5, §8

DKO mice = experiment: Glycogen clearance after rhGAA in DKO mice
Procedure: as §6, §5, §7

For `CC(C)(C)NCC(O)c1ccc(O)c(CO)c1` (stereo not drawn) [albuterol], the Rotarod latency [1] was “increased latency”, the Glycogen content ([2]; cerebellum, β2 agonist plus ERT v. ERT alone) was “reduced significantly” and the Glycogen content ([2]; liver, albuterol plus ERT v. ERT alone) was “significantly reduced”. For the same compound, the Glycogen content ([2]; quadriceps, albuterol plus ERT v. ERT alone) was “significantly reduced”, the “glycogen staining (histopathology)” value [3] was “reduced” and the GAA activity ([4]; cerebellum, 5 weeks after initiation of ERT, clenbuterol p=0.08, albuterol p=0.09) was “trend toward increased GAA activity”. The GAA activity ([4]; tibialis anterior only, albuterol plus ERT v. ERT alone) was “increased”, the “GAA activity in tissues with reduced glycogen content” value ([4]; β2 agonist plus ERT v. ERT alone) was “unchanged” and the “glycogen content of the quadriceps” value (GAA-KO mice [5]) was “trend toward decreasing”.

In the case of “rhGAA: recombinant human acid α-glucosidase used for enzyme replacement therapy (ERT) in Pompe disease”, the glycogen clearance (GAA-KO mice [6]; GAA-KO mouse heart, rhGAA 100 mg/kg) is reported as 99%, the glycogen clearance (GAA-KO mice [6]; heart of Pompe mice, rhGAA 20 mg/kg) is reported as 77% and the glycogen depletion (GAA-KO mice [6]; quadriceps of GAA-KO mice, rhGAA 20 mg/kg) is reported as 55%. The “Glycogen increase in DKO v. GAA-KO (%)” value ([7]; Diaphragm) was 192%, the “Glycogen increase in DKO v. GAA-KO (%)” value ([7]; Gastrocnemius) was 340% and the “Glycogen increase in DKO v. GAA-KO (%)” value ([7]; Heart) was 1600%. The “Glycogen increase in DKO v. GAA-KO (%)” value ([7]; Quadriceps) was 300%, the “Glycogen increase in DKO v. GAA-KO (%)” value ([7]; Triceps) was 425% and the “GAA decrease in DKO v. GAA-KO (%)” value ([8]; Diaphragm) was 2%. For the same compound, the “GAA decrease in DKO v. GAA-KO (%)” value ([8]; Gastrocnemius) was 72%, the “GAA decrease in DKO v. GAA-KO (%)” value ([8]; Heart) was 47% and the “GAA decrease in DKO v. GAA-KO (%)” value ([8]; Quadriceps) was 79%. For the same compound, the “GAA decrease in DKO v. GAA-KO (%)” value ([8]; Triceps) was 76%, the “reduced rhGAA uptake in DKO mice as compared with Pompe mice” value ([8]; heart, 100 mg/kg rhGAA) was 50% and the “rhGAA uptake (enzyme activity) in DKO v. GAA-KO mice” value ([8]; skeletal tissues (quadriceps, triceps, gastrocnemius), 20 and 100 mg/kg) was “significantly decreased uptake”. It also gave a glycogen clearance (DKO mice; DKO mouse heart, rhGAA 100 mg/kg) of 95%, a glycogen clearance (DKO mice; heart of DKO mice, rhGAA 20 mg/kg) of 7% and a glycogen depletion (DKO mice; quadriceps of DKO mice, rhGAA 20 mg/kg) of 8%.
